The target of series [1] is T1, UDP-glucuronosyltransferase 1A1 (Homo sapiens, UniProt P22309).
T1 sequence (P22309 whole entry): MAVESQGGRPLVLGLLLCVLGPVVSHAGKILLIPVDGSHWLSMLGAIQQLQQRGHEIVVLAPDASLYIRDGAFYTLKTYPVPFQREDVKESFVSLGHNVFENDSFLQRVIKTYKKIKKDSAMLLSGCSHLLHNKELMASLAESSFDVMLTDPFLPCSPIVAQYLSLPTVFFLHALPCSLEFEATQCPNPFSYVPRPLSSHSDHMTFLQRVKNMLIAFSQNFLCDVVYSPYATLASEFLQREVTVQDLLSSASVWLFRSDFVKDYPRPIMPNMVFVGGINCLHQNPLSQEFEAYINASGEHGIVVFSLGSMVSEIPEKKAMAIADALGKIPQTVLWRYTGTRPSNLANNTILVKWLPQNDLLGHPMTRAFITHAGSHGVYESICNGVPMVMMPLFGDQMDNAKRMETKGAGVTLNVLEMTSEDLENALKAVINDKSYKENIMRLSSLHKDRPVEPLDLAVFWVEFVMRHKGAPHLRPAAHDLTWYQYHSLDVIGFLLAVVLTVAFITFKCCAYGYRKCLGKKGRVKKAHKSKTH
As to the kind of experiment: Inhibition of human recombinant UGT1A1 expressed in HEK293 cells assessed as reduction in bilirubin glucuronidation by LC-MS/MS method. It is filed as ADME, cell-based.

Series [2] has as its target T1, UDP-glucuronosyltransferase 1A1. Nature of the series: Inhibition of human recombinant UGT1A1 expressed in HEK293 cells assessed as reduction in estradiol 3-glucuronidation by LC-MS/MS method. The class given is ADME, cell-based.
Series [3] has the same target. Nature of the series: Inhibition of human recombinant UGT1A1 expressed in HEK293 cells assessed as reduction in estradiol 3-glucuronidation using 4 to 75 uM estradiol by LC-MS/MS method. The class given is ADME, cell-based.
Series [4] has the same target. As to the kind of experiment: Activation of human recombinant UGT1A1 expressed in HEK293 cells assessed as increase in estradiol 3-glucuronidation at 6.25 uM by LC-MS/MS method. It is filed as ADME, cell-based. Conditions: hek293, 6.25 µM; call rule not given here.
Series [5] has the same target. Nature of the series: Activation of human recombinant UGT1A1 expressed in HEK293 cells assessed as increase in estradiol 3-glucuronidation at 6.25 uM using 4 uM estradiol by LC-MS/MS method relative to untreated control. As to conditions: hek293, 6.25 µM. It is filed as ADME, cell-based.
Series [6] has the same target. As to the kind of experiment: Inhibition of human recombinant UGT1A1 expressed in HEK293 cells assessed as reduction in estradiol 3-glucuronidation at 50 uM using >15 uM estradiol by LC-MS/MS method. It is filed as ADME, cell-based. Conditions: hek293, 50 µM.
The target is the same in series [7]. As to the kind of experiment: Activation of human recombinant UGT1A1 expressed in HEK293 cells assessed as increase in estradiol 3-glucuronidation by LC-MS/MS method relative to untreated control. It is filed as ADME, cell-based.
For series [8] the target is unchanged. As to the kind of experiment: Activation of human recombinant UGT1A1 expressed in HEK293 cells assessed as increase in estradiol 3-glucuronidation using 15 uM estradiol by LC-MS/MS method relative to untreated control. It is filed as ADME, cell-based.
The next series concerns the target T2, UGT1A1 (Homo sapiens, UniProt P22309).
T2 sequence (P22309 whole entry): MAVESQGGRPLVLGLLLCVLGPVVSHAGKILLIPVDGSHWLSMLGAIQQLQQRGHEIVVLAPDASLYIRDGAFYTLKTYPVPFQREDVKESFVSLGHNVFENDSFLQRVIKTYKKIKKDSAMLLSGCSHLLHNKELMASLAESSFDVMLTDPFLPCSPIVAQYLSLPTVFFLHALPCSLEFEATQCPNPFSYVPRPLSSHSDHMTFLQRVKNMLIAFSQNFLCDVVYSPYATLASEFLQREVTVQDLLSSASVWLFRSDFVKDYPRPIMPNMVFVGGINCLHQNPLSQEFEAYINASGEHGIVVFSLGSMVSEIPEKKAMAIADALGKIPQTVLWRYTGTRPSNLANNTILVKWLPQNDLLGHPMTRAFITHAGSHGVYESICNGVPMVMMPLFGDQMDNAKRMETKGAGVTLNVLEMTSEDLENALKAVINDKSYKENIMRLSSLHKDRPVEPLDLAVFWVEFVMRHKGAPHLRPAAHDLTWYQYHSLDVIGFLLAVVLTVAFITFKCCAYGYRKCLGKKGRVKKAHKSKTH
As to the kind of experiment: Activation of human recombinant UGT1A1 expressed in HEK293 cells assessed as increase in estradiol 3-glucuronidation using 7.5 uM estradiol by LC-MS/MS method relative to untreated control. The class given is ADME, cell-based. As to conditions: probe estradiol (3-glucuronidation).

Substrate in series [9]: CCc1c2c(nc3ccc(O)cc13)-c1cc3c(c(=O)n1C2)COC(=O)[C@]3(O)CC
As to the kind of experiment: Drug metabolism assessed as UGT1A1 (unknown origin)-mediated compound glucuronidation. It is filed as ADME, Homo sapiens.

These results are taken from ChEMBL document CHEMBL3526014, “Correlation between bilirubin glucuronidation and estradiol-3-gluronidation in the presence of model UDP-glucuronosyltransferase 1A1 substrates/inhibitors” (Drug Metab Dispos, 2011).

A value given as a limit tells only on which side of the number the result lay.

With `O=C1NC(=O)C(c2ccccc2)(c2ccc(O)cc2)N1` (configuration not stated), the IC50 (usually the point on the concentration scale where inhibition reaches its midpoint) turned out to be 120 µM in series [1] and 110 µM in series [2] (read-out: IC50).
Consider `Cc1nnc(C(=O)NC(C)(C)c2nc(C(=O)NCc3ccc(F)cc3)c(O)c(=O)n2C)o1`, for which the IC50 in [1] was found to be 170 µM; in series [2] (read-out: IC50), 190 µM.
For the molecule `O=C1c2ccc(O)cc2C(=O)c2ccc(O)cc21`, the IC50 in [1] turned out to be 3.6 µM; in series [2] (read-out: IC50), 4 µM.
With `Oc1cccc2ccccc12` [1-NAPHTHOL], the IC50 in [1] came out at 240 µM; in [2] (read-out: IC50) it was 280 µM.
For `CCc1c2c(nc3ccc(O)cc13)-c1cc3c(c(=O)n1C2)COC(=O)[C@]3(O)CC` [7-ETHYL-10-HYDROXYCAMPTOTHECIN], the IC50 in series [1] was 360 µM; in series [2] (hek293), “Not Active”. Moreover, the “inhibition (INH)” value in series [3] was 40%.
On to `O=c1cc(-c2ccccc2)oc2cc(O)c(O)c(O)c12` [BAICALEIN], for which the figures for the IC50 in series [1] and in [2] (read-out: IC50) were 7 µM and 4.4 µM, respectively.
As for `O=c1c(-c2ccc(O)cc2)coc2cc(O)ccc12` [DAIDZEIN], the IC50 in series [1] was found to be 7.3 µM; in [2] (read-out: IC50), 120 µM. In addition, the Activity entry in series [4] is on record as “Active”; in series [5], 392%; in series [7], “Active”. For the same molecule, the “inhibition (INH)” value in [6] was “Active”.
`C#C[C@]1(O)CC[C@H]2[C@@H]3CCc4cc(O)ccc4[C@H]3CC[C@@]21C` [ETHINYL ESTRADIOL]: the half-maximal inhibitory concentration (IC50) came to 21 µM in series [1] and 44 µM in series [2] (read-out: IC50). In addition, the Activity result in [7] was “Active”; in [8] it was 128%; at UGT1A1, no more than 140%.
As to `CC(C)=CCC/C(C)=C/CC/C(C)=C/CO` [FARNESOL], the half-maximal inhibitory concentration (IC50) in series [1] came out at 47 µM; in series [2] (read-out: IC50) it was 40 µM.
Consider `Cc1cc(=O)oc2cc(O)ccc12` [HYMECROMONE], for which the IC50 in [1] and in series [2] (read-out: IC50) was 100 µM throughout.
In the case of `CC(=O)N1CCN(c2ccc(OCC3COC(Cn4ccnc4)(c4ccc(Cl)cc4Cl)O3)cc2)CC1` (configuration not stated) [KETOCONAZOLE], the IC50 in [1] was 27 µM; in [2] (read-out: IC50), 13 µM.
With `N[C@@H](Cc1cc(I)c(Oc2cc(I)c(O)c(I)c2)c(I)c1)C(=O)O` [LEVOTHYROXINE], the IC50 in series [1] worked out at 4.9 µM; in [2] (read-out: IC50) it was 5.6 µM.
Taken in the same sequence, the figures for `O=C(O)c1cccnc1Nc1cccc(C(F)(F)F)c1` [NIFLUMIC ACID] were 53 µM and 13 µM.
For the molecule `Nc1nc2ccc(OC(F)(F)F)cc2s1` [RILUZOLE], the IC50 in series [1] is 180 µM; in series [2] (read-out: IC50), 160 µM.

B1: UDP-glucuronosyltransferase 1A1 (Homo sapiens) (protein)
chain: MAVESQGGRPLVLGLLLCVLGPVVSHAGKILLIPVDGSHWLSMLGAIQQLQQRGHEIVVLAPDASLYIRDGAFYTLKTYPVPFQREDVKESFVSLGHNVFENDSFLQRVIKTYKKIKKDSAMLLSGCSHLLHNKELMASLAESSFDVMLTDPFLPCSPIVAQYLSLPTVFFLHALPCSLEFEATQCPNPFSYVPRPLSSHSDHMTFLQRVKNMLIAFSQNFLCDVVYSPYATLASEFLQREVTVQDLLSSASVWLFRSDFVKDYPRPIMPNMVFVGGINCLHQNPLSQEFEAYINASGEHGIVVFSLGSMVSEIPEKKAMAIADALGKIPQTVLWRYTGTRPSNLANNTILVKWLPQNDLLGHPMTRAFITHAGSHGVYESICNGVPMVMMPLFGDQMDNAKRMETKGAGVTLNVLEMTSEDLENALKAVINDKSYKENIMRLSSLHKDRPVEPLDLAVFWVEFVMRHKGAPHLRPAAHDLTWYQYHSLDVIGFLLAVVLTVAFITFKCCAYGYRKCLGKKGRVKKAHKSKTH
Take B1: the Km (commonly the substrate concentration at which the rate is half of its maximum) in series [9] was determined as 25 µM.
